Data reported in patent US7037644B1, “Means and methods for monitoring non-nucleoside reverse transcriptase inhibitor antiretroviral therapy and guiding therapeutic decisions in the treatment of HIV/AIDS” (ViroLogic, Inc., priority 1998, dated 2006).

Tests used:
[1] = system: patient 780 virus (RT K103N, P225H); assay: Phenotypic susceptibility assay (patient virus); assay type: cell-based, HIV; settings: patient 780, FIGS. 8D-8F
Text: FIGS. 8D, 8E, and 8F. Phenotypic Drug Susceptibility and Resistance Profile: Patients 780. This is a second example of the third pattern of NNRTI susceptibility/resistance. […] This pattern is characterized by a larger reduction of nevirapine suseptibility compared to the reduction of delavirdine susceptibility.
(§1) The resistance test vectors containing a functional luciferase gene cassette were constructed and host cells were transfected with the resistance test vector DNA. […] The IC50 values were determined by plotting percent drug inhibition vs. log10 drug concentration.
(§2) Host cells were seeded in 10-cm-diameter dishes and were transfected several days after plating with resistance test vector plasmid DNA and the envelope expression vector. […] HIV capsid protein (p24) levels in the harvested cell culture media were determined by an EIA method as described by the manufacturer (SIAC; Frederick, Md.). […] The inhibitory effect of the drug was determined using the following equation: % luciferase inhibition=1−(RLUluc [drug]÷RLUluc)×100 where RLUluc [drug] is the relative light unit of luciferase activity in infected cells in the presence of drug and RLUluc is the Relative Light Unit of luciferase activity in infected cells in the absence of drug. […]

[2] = system: RTV-675, patient 98-675 (RT A98G); assay: Phenotypic susceptibility assay (patient RTV); assay type: cell-based, HIV-1; settings: patient RTV pool
Procedure: as §1, with “DNA. The resistant test vectors contained patient-derived reverse transcriptase and protease sequences that were either susceptible or resistant to the antiretroviral agents, such as nucleoside reverse transcriptase inhibitors, non-nucleoside reverse transcriptase inhibitors and protease inhibitors.” for “DNA.”
as §2

[3] = system: RTV-1057, patient 98-1057 (RT A98G, Y181C); assay: Phenotypic susceptibility assay (patient RTV); assay type: cell-based, HIV-1; settings: patient RTV pool
Procedure: as §1, with “DNA. The resistant test vectors contained patient-derived reverse transcriptase and protease sequences that were either susceptible or resistant to the antiretroviral agents, such as nucleoside reverse transcriptase inhibitors, non-nucleoside reverse transcriptase inhibitors and protease inhibitors.” for “DNA.”
as §2

[4] = system: RTV-955, patient 98-955 (RT K101E, K103N, Y181C, G190A mixtures); assay: Phenotypic susceptibility assay (patient RTV); assay type: cell-based, HIV-1; settings: patient RTV pool
Procedure: as §1, with “DNA. The resistant test vectors contained patient-derived reverse transcriptase and protease sequences that were either susceptible or resistant to the antiretroviral agents, such as nucleoside reverse transcriptase inhibitors, non-nucleoside reverse transcriptase inhibitors and protease inhibitors.” for “DNA.”
as §2

[5] = system: RTV-209, patient 97-209 (RT E138A, Y188L); assay: Phenotypic susceptibility assay (patient RTV); assay type: cell-based, HIV-1; settings: patient RTV pool
Procedure: as §1, with “DNA. The resistant test vectors contained patient-derived reverse transcriptase and protease sequences that were either susceptible or resistant to the antiretroviral agents, such as nucleoside reverse transcriptase inhibitors, non-nucleoside reverse transcriptase inhibitors and protease inhibitors.” for “DNA.”
as §2

Compound | change in susceptibility [1] | decrease in susceptibility (fold, IC50) [2] [fold] | decrease in susceptibility (fold, IC50) [3] [fold] | decrease in susceptibility (fold, IC50) [4] [fold] | decrease in susceptibility (fold, IC50) [5]
Cc1ccnc2c1NC(=O)c1cccnc1N2C1CC1 [nevirapine] | reduced susceptibility | 6 | 610 | 530 | greater than 800 fold
CC(C)Nc1cccnc1N1CCN(C(=O)c2cc3cc(NS(C)(=O)=O)ccc3[nH]2)CC1 [delavirdine] | reduced susceptibility | 2.1 | 35 | 4 | 75 fold
